Read-outs that look alike come from different tables or passages of the source.
Tests used:
Format in all cases: cell-based
G2019S LRRK2 = target: T1, G2019S LRRK2 (Homo sapiens, UniProt Q5S007, G2019S); test: LRRK2 degradation assay, HiBit-tagged G2019S LRRK2 expressed from plasmid in HEK293 cells (Nano-Glo Dual-Luciferase); conditions: 24 hours
T1 construct: expressed in transfected cells; host or cells: HEK293 (ATCC CRL-1573), transient transfection, mammalian expression vector with ubiquitin promoter
T1 sequence (Q5S007 whole entry G2019S): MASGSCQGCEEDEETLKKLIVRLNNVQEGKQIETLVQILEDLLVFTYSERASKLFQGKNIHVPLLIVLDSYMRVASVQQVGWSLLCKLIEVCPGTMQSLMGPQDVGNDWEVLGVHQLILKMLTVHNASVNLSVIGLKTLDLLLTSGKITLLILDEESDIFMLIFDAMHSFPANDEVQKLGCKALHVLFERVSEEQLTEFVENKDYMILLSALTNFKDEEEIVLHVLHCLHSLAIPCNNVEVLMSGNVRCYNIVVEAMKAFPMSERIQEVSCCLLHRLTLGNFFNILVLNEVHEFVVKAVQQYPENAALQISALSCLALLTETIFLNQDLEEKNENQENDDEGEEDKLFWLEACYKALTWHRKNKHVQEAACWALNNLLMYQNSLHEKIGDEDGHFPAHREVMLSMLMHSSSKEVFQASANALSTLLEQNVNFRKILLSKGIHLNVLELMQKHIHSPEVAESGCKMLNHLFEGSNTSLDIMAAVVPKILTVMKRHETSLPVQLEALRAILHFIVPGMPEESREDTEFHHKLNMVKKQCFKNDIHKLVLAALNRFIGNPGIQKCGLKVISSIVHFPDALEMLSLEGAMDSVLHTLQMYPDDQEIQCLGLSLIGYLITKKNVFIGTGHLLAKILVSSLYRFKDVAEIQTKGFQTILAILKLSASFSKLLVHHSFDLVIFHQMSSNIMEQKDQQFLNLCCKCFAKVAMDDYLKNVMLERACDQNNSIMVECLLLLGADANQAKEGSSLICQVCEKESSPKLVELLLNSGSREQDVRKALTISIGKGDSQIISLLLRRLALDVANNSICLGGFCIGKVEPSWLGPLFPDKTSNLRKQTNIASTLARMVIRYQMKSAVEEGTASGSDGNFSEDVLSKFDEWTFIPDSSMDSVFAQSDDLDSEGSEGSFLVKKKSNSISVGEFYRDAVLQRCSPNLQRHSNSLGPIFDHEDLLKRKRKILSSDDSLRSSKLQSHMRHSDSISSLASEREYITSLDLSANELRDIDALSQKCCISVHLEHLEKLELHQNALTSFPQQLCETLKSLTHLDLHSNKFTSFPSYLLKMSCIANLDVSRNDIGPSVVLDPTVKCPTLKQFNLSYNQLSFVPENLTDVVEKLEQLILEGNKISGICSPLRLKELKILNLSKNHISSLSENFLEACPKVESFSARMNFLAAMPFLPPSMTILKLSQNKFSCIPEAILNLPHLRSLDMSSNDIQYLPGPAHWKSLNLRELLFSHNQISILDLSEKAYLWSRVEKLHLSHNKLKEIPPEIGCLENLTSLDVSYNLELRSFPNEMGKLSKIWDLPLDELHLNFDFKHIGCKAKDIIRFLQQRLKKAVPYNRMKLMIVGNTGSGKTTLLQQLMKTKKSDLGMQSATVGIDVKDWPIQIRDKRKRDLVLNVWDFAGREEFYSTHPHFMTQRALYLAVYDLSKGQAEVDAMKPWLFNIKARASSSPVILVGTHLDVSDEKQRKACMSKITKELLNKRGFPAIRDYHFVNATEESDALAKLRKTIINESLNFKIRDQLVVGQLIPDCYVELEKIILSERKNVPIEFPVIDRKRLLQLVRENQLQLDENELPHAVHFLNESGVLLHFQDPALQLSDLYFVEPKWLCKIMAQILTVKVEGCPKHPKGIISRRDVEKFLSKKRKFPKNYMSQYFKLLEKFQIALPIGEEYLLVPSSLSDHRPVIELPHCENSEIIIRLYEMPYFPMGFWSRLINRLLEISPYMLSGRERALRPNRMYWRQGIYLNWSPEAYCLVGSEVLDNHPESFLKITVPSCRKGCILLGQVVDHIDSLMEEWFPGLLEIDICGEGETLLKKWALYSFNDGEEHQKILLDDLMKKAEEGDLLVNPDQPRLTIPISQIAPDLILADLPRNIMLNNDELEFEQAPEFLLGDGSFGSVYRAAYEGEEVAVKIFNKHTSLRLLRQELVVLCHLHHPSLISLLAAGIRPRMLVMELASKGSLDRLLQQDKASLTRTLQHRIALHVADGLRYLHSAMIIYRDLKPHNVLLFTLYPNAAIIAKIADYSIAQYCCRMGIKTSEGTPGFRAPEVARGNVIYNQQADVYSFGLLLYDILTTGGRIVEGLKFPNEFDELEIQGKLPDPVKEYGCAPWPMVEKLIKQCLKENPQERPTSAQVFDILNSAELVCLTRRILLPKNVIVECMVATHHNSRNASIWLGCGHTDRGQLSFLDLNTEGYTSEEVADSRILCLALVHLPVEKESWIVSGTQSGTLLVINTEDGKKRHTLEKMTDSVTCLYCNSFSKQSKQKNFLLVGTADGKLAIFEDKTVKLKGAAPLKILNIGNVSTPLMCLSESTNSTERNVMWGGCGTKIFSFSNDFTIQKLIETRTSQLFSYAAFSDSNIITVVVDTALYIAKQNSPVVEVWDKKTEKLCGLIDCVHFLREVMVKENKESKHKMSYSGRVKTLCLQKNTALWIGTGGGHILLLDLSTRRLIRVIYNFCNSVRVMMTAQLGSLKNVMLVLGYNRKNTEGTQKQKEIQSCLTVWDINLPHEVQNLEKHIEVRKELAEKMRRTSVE
Summary of the method: (§1)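 Degradation read as Nano-Glo HiBiT signal over firefly luciferase (cell number/viability) after 24 h compound exposure of transiently transfected HEK293 expressing C-terminally HiBiT-tagged wildtype or G2019S LRRK2. Data as % DMSO; DC50/Dmax fitted per plate, triplicate plates repeated twice.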

wildtype LRRK2 = target: T2, wildtype LRRK2 (Homo sapiens, UniProt Q5S007); test: LRRK2 degradation assay, HiBit-tagged wildtype LRRK2 expressed from plasmid in HEK293 cells (Nano-Glo Dual-Luciferase); conditions: 24 hours; for Dmax: read-out: **WT Dmax (%); for DC50: read-out: *WT DC50
T2 construct: expressed in transfected cells; host or cells: HEK293 (ATCC CRL-1573), transient transfection, mammalian expression vector with ubiquitin promoter
T2 sequence (Q5S007 whole entry): as the sequence (Q5S007 whole entry G2019S) above, with S2019G counted along it
Summary of the method: as §1

[1] = target: T3, LRRK2 (endogenous, HiBit tagged) (Homo sapiens, UniProt Q5S007); test: Endogenous LRRK2 degradation assay, endogenous gene C-terminally HiBit-tagged in HEK293 cells (Nano-Glo Dual Luciferase); conditions: 24 hours; for Dmax: read-out: **Endogenous WT Dmax (%); for DC50: read-out: *Endogenous WT DC50
T3 construct: endogenous in cells; host or cells: HEK293 cells with HiBit knock-in at the endogenous LRRK2 locus, stably expressing firefly luciferase
T3 sequence (Q5S007 whole entry): as the sequence (Q5S007 whole entry G2019S) above, with S2019G counted along it
Summary of the method: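 LRRK2-HiBit quantified via Nano-Glo Dual Luciferase in HEK293 knock-in cells co-expressing firefly luciferase, after 24 h exposure to compound (1 μM final top, 1:3, 11 points). Values normalised to DMSO median per plate and curve-fitted; Alamar Blue viability run alongside.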

[2] = HiBit-tagged G2019S LRRK2 in HEK293 cells
[3] = HiBit-tagged wildtype LRRK2 in HEK293 cells
[4] = endogenous HiBit-tagged LRRK2 in HEK293 cells
[5] = HiBit-tagged G2019S LRRK2, HEK293 cells
[6] = HiBit-tagged wildtype LRRK2, HEK293 cells
[7] = endogenous HiBit-tagged LRRK2, HEK293 cells

C[C@H]1CN(c2cc(-c3n[nH]c4ccc(OC5(C)CC5)cc34)ncn2)CCN1CC1(F)CCN(CC2CCN(c3ccc4c(c3)C(=O)N(C3CCC(=O)NC3=O)C4=O)CC2)CC1 (stereo partly drawn) [Compound 69, 2-(2,6-dioxo-3-piperidyl)-5-[4-[[4-fluoro-4-[[(2S)-2-methyl-4-[6-[5-(1-methylcyclopropoxy)-1H-indazol-3-yl]pyrimidin-4-yl]piperazin-1-yl]methyl]-1-piperidyl]methyl]-1-piperidyl]isoindoline-1,3-dione]
DC50 (G2019S LRRK2; [2]): < 10 nM
Dmax (G2019S LRRK2; [2]): < 50%
Dmax (wildtype LRRK2; [3]): < 50%
DC50 (wildtype LRRK2; [3]): < 10 nM
Dmax [1, 4]: 50 to 70%
DC50 [1, 4]: < 10 nM

CC1(Oc2ccc3[nH]nc(-c4cc(N5CCN(C[C@H]6CC(=O)N(CC7CCN(c8ccc9c(c8)C(=O)N(C8CCC(=O)NC8=O)C9=O)CC7)C6)CC5)ncn4)c3c2)CC1 (single isomer, unassigned) [Compound 120]
DC50 (G2019S LRRK2; [2]): < 10 nM
Dmax (G2019S LRRK2; [2]): 50 to 70%
Dmax (wildtype LRRK2; [3]): 50 to 70%
DC50 (wildtype LRRK2; [3]): < 10 nM
Dmax [1, 4]: 50 to 70%
DC50 [1, 4]: < 10 nM

CC1(Oc2ccc3[nH]nc(-c4ccnc(N5CC(CC6CCN(CC7CCN(c8ccc9c(c8)C(=O)N(C8CCC(=O)NC8=O)C9=O)CC7)CC6)C5)c4)c3c2)CC1 (stereo not drawn) [Compound 160, 2-(2,6-dioxo-3-piperidyl)-5-[4-[[4-[[1-[4-[5-(1-methylcyclopropoxy)-1H-indazol-3-yl]-2-pyridyl]azetidin-3-yl]methyl]-1-piperidyl]methyl]-1-piperidyl]isoindoline-1,3-dione]
DC50 (G2019S LRRK2; [5]): < 10 nM
Dmax (G2019S LRRK2; [5]): 50 to 70%
Dmax (wildtype LRRK2; [6]): 50 to 70%
DC50 (wildtype LRRK2; [6]): < 10 nM
Dmax [1, 7]: ≥ 70%
DC50 [1, 7]: < 10 nM

C[C@H]1CN(c2cc(-c3[nH]nc4ccc(OC5(C)CC5)cc34)ncn2)CCN1CC1CCN(CC2CCN(c3cccc4c3C(=O)N(C3CCC(=O)NC3=O)C4=O)CC2)CC1 (stereo partly drawn) [Compound 137, 2-(2,6-dioxo-3-piperidyl)-4-[4-[[4-[[(2S)-2-methyl-4-[6-[5-(1-methylcyclopropoxy)-2H-indazol-3-yl]pyrimidin-4-yl]piperazin-1-yl]methyl]-1-piperidyl]methyl]-1-piperidyl]isoindoline-1,3-dione]
DC50 (G2019S LRRK2; [2]): < 10 nM
Dmax (G2019S LRRK2; [2]): ≥ 70%
Dmax (wildtype LRRK2; [3]): ≥ 70%
DC50 (wildtype LRRK2; [3]): < 10 nM
Dmax [1, 4]: ≥ 70%
DC50 [1, 4]: 10 to 50 nM

CC1(Oc2ccc3n[nH]c(-c4cc(N5CC(OC6CCN(CC7CCN(c8ccc9c(c8)C(=O)N(C8CCC(=O)NC8=O)C9=O)CC7)CC6)C5)ncn4)c3c2)CC1 (stereo not drawn) [Compound 130, 2-(2,6-dioxo-3-piperidyl)-5-[4-[[4-[1-[6-[5-(1-methylcyclopropoxy)-2H-indazol-3-yl]pyrimidin-4-yl]azetidin-3-yl]oxy-1-piperidyl]methyl]-1-piperidyl]isoindoline-1,3-dione]
DC50 (G2019S LRRK2; [2]): < 10 nM
Dmax (G2019S LRRK2; [2]): 50 to 70%
Dmax (wildtype LRRK2; [3]): 50 to 70%
DC50 (wildtype LRRK2; [3]): < 10 nM
Dmax [1, 4]: ≥ 70%
DC50 [1, 4]: < 10 nM

CC1(Oc2ccc3[nH]nc(-c4cc(N5CCN(C[C@@H]6CC(=O)N(CC7CCN(c8ccc9c(c8)C(=O)N(C8CCC(=O)NC8=O)C9=O)CC7)C6)CC5)ncn4)c3c2)CC1 (single isomer, unassigned) [Compound 121]
DC50 (G2019S LRRK2; [2]): < 10 nM
Dmax (G2019S LRRK2; [2]): 50 to 70%
Dmax (wildtype LRRK2; [3]): 50 to 70%
DC50 (wildtype LRRK2; [3]): < 10 nM
Dmax [1, 4]: ≥ 70%
DC50 [1, 4]: < 10 nM

Source: patent US12559506B2, “Indazole based compounds and associated methods of use” (Arvinas Operations, Inc., priority 2021, dated 2026)
